These results are taken from EP0313782A2, “Antimycotic preparations” (BAYER AG, priority 1987, dated 1989).

In this assay the test system is Candida-Zellen. The assay can be described thus: Antimycotic in vivo efficacy (oral) in mouse candidiasis. More on the design: species or system Mäuse vom Typ SPF-CF₁. Particulars: for Wirkung: mice infected i.v. with 1 - 2 x 10⁶ Candida cells, oral treatment 1 h before and 7 h after infection, 10 - 100 mg/kg each, survivors on day 6 p.i. (untreated controls about 5 %); for Wirkung (comparison with the known compounds (A) and (B)): same test, statement in words in the text. As for the experimental part:
Antimykotische in-vivo-Wirksamkeit (oral) bei Mäusecandidose
Mäuse vom Typ SPF-CF₁ wurden intravenös mit 1 - 2 x 10⁶ logarithmisch wachsenden Candida-Zellen, die in physiologischer Kochsalzlösung suspendiert werden, infiziert. Eine Stunde vor und sieben Stunden nach der Infektion werden die Tiere mit jeweils 10 - 100 mg/kg Körpergewicht der Präparate oral behandelt.
Unbehandelte Tiere starben 3 bis 6 Tage post infektionem. Die Überlebensrate am 6.Tag post infektionem betrug bei unbehandelten Kontrolltieren etwa 5 %.

Structures are written as SMILES.

On to `OC(Cn1cncn1)(c1ccc(F)cc1F)C1(SC(F)(F)F)CC1` (stereo not drawn) [I-1, 1-(2,4-Difluorphenyl)-1-hydroxy-2-(1,2,4-triazol-1-yl)-1-(1-trifluormethylmercapto-cycloprop-1-yl)-ethan], for which the Wirkung entry is reported as “+++++ (sehr gute Wirkung = 90 % Überlebende am 6.Tag.p.i.)”; the “Wirkung (comparison with the known compounds (A) and (B))” value was “bessere Wirkung”.

Consider `OC(Cn1cncn1)(c1ccc(F)cc1)C1(SC(F)(F)F)CC1` (stereo not drawn) [I-4], for which the Wirkung result is on record as “+++++ (sehr gute Wirkung = 90 % Überlebende am 6.Tag.p.i.)”; the “Wirkung (comparison with the known compounds (A) and (B))” value is “bessere Wirkung”.

Consider `[O-][S+](C(F)(F)F)C1(C(O)(Cn2cncn2)c2ccc(F)cc2F)CC1` (stereo not drawn) [I-2, 1-(2,4-Difluorphenyl)-1-hydroxy-2-(1,2,4-triazol-1-yl)-1-(trifluormethylsulfoxy-cycloprop-1-yl)-ethan], for which the Wirkung result was “+++++ (sehr gute Wirkung = 90 % Überlebende am 6.Tag.p.i.)”; the “Wirkung (comparison with the known compounds (A) and (B))” value is “bessere Wirkung”.
